Measured values published in patent US20230357248A1, “PYRROLOPYRIMIDINE COMPOUND AS BTK INHIBITOR AND USE THEREOF” (MEDSHINE DISCOVERY INC., priority 2019, published 2023).
Values after ≈ are worked out from the molar mass of the structure shown.

Assays:
[1] = Assay of kinetic solubility; assay type: physicochemical; conditions: buffer solution, aqueous buffer, kinetic from dmso stock, pH 6.5 in table head (method says pH 7.4), 24 hours room temperature, theoretical maximum 200 μM
Protocol: The assay compound was dissolved in DMSO to prepare 10 mmol/L stock solution. 980 μL of dissolution medium was added to a 2 mL glass vial with a screw cap using a pipette (Eppendorf Research Company). […] The final concentrations of the assay compound and DMSO solution were 200 μM and 2%, respectively. The vias were capped. The theoretical maximum concentration was 200 μM. The mixture was shaken at 880 rpm at room temperature for 24 hours. The vials were centrifuged at 13,000 rpm for 30 minutes. 200 μL of supernatant was added to a 96-well plate using a digital pipette.

[2] = tested on: TMD8 cells; assay: BTK cell activity assay (CellTiter Glo); assay type: cell-based; conditions: Homo sapiens, Cell Titer Glo, read-out: Relative IC50
Protocol: 1. Cell Culture and Passage
The medium, trypsin and 1×PBS used in the cell passage process were preheated in a 37° C. water bath. The supernatant was aspirated.
1 mL of trypsin was added to rinse, and the rinse solution was aspirated. 1 mL of trypsin was added, respectively, and cells were digested at 37° C. until the cells fell off. 10 mL of culture medium was added and mixed well. The mixture was centrifuged at 1000 rpm for 5 min and the cells were resuspended in 10 mL of culture medium. 0.7 mL of cell suspension was pipetted into a counting cup and counted on ViCell XR to respectively obtain a cell density of 0.327 million/mL. 1.17 mL of cell suspension and culture medium were weighed, respectively, to dilute the cell suspension. According to the microplate layout diagram below, 100 μL of phosphate buffer was added to the peripheral wells of the 384-well microplate, and 40 μL of cell suspension was added to other wells, respectively. The cell plate was then cultured in an incubator.
2. Dosing • (1) Preparation of compound:
A 9 μL dilution of the compound to be assayed was added to a shallow-well plate for Pod (Labcyte, #LP-0200). The shallow-well plate was centrifuged at 2500 rpm for 30 s. • (2) The cell plate was removed from the incubator. • (3) According to the microplate layout diagram below, compounds were serially diluted 3-fold in Pod to obtain 10 concentrations. The diluted compounds were added to the cell plate at 100 nL, respectively, and then the cell plate was returned to the incubator for culture. • 3. At Day 0, 20 μL of CellTiter Glo was added to the plate with DMSO added, and the mixture was shaken in the dark for 10 minutes. The plate was read with Envision. • 4. At Day 5: CTG was added and the plate was read. • (1) After being cultured for 72 h, 20 μL of Cell Titer Glo was added to the cell plate, and the mixture was shaken in the dark for 10 minutes. • (2) The plate was read with Envision.
Assay Results • 1. Average value and standard deviation of 0% inhibition (DMSO well, MAX) and 100% inhibition (day 0, DMSO) in each group were calculated; • 2. […]

- solubility at 24 h [1]: 1.1 µM (≈ 0.56 µg/mL)
SMILES: CO[C@@H]1C[C@@H](CO)OC[C@@H]1Nc1ncnc2[nH]cc(C(=O)c3ccc(Oc4ccccc4)cc3Cl)c12 [Compound 4]
- IC50 [2]: 261 nM
